Reference: the NIST ThermoML archive (doi:10.1021/je050378i)
Numbers after ± are expanded uncertainties.

Test: wn = mass fraction of the nth substance listed
Conditions: 101.33 kPa, Liquid

CC(C)(N)CO [2-amino-2-methylpropan-1-ol] + O
w1 = 0.3
Conditions | mass density [kg/m3] | viscosity [mPa·s]
298 K | 997 ± 1.3 | 3.637 ± 0.11
303 K | 994.2 ± 1.4 | 2.964 ± 0.091
308 K | 991.4 ± 1.4 | 2.446 ± 0.075
313 K | 988.4 ± 1.4 | 2.043 ± 0.063
318 K | 985.4 ± 1.5 | 1.696 ± 0.053
323 K | 982.1 ± 1.5 | 1.425 ± 0.044
328 K | 978.8 ± 1.5 | 1.237 ± 0.039
333 K | 975.5 ± 1.6 | 1.081 ± 0.034

C1CNCCN1 [piperazine] + O
Conditions | mass density, w1 = 0.0174 [kg/m3] | mass density, w1 = 0.0345 [kg/m3] | mass density, w1 = 0.0516 [kg/m3] | mass density, w1 = 0.0688 [kg/m3] | viscosity, w1 = 0.0174 [mPa·s] | viscosity, w1 = 0.0344 [mPa·s] | viscosity, w1 = 0.0516 [mPa·s] | viscosity, w1 = 0.0688 [mPa·s]
298 K | 997.8 ± 1.1 | 998.5 ± 1.1 | 999.4 ± 1.1 | 1000.6 ± 1.1 | 0.957 ± 0.03 | 1.021 ± 0.031 | 1.09 ± 0.033 | 1.169 ± 0.036
303 K | 996.5 ± 1.2 | 997.2 ± 1.2 | 998.1 ± 1.2 | 999 ± 1.2 | 0.861 ± 0.027 | 0.915 ± 0.028 | 0.965 ± 0.03 | 1.035 ± 0.032
308 K | 995.1 ± 1.2 | 995.7 ± 1.2 | 996.5 ± 1.2 | 997.6 ± 1.2 | 0.776 ± 0.024 | 0.805 ± 0.025 | 0.865 ± 0.027 | 0.91 ± 0.028
313 K | 993.2 ± 1.2 | 994.1 ± 1.2 | 994.7 ± 1.3 | 995.6 ± 1.2 | 0.681 ± 0.022 | 0.718 ± 0.023 | 0.763 ± 0.024 | 0.821 ± 0.026
318 K | 991.4 ± 1.3 | 992.2 ± 1.3 | 992.5 ± 1.3 | 993.8 ± 1.3 | 0.623 ± 0.02 | 0.652 ± 0.021 | 0.703 ± 0.022 | 0.731 ± 0.023
323 K | 989.3 ± 1.3 | 990.2 ± 1.3 | 990.4 ± 1.3 | 991.4 ± 1.3 | 0.573 ± 0.018 | 0.592 ± 0.019 | 0.624 ± 0.02 | 0.663 ± 0.021
328 K | 986.7 ± 1.4 | 987.4 ± 1.4 | 988 ± 1.4 | 989.1 ± 1.4 | 0.543 ± 0.018 | 0.543 ± 0.018 | 0.569 ± 0.018 | 0.604 ± 0.019
333 K | 984.2 ± 1.4 | 984.5 ± 1.4 | 985.7 ± 1.4 | 987.4 ± 1.4 | 0.488 ± 0.016 | 0.505 ± 0.017 | 0.523 ± 0.017 | 0.546 ± 0.018
